From ChEMBL document CHEMBL3228028, “Enzyme affinity of the 5,6-dihydro derivatives of the substrate and product of thymidylate synthetase catalysis” (J Med Chem, 1979)

What was measured:
[1] = molecular target: T1, Thymidylate synthase (Lactobacillus casei, UniProt P00469); assay: Competitive inhibition of Lactobacillus casei thymidylate synthetase using 2'-deoxy[5-3H]uridine-5'-phosphate as substrate assessed as release of water after 15 mins by double reciprocal plot analysis; parameters: species or system Lacticaseibacillus casei
T1 sequence (P00469 whole entry): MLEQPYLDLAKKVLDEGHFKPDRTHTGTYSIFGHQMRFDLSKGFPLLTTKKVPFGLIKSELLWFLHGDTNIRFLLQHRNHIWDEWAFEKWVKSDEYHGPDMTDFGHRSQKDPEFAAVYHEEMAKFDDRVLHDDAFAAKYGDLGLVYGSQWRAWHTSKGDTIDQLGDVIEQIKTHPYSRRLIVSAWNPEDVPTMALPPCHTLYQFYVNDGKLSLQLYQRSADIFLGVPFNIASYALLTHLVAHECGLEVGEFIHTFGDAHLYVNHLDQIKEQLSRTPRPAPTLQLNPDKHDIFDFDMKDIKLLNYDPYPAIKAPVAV

[2] = molecular target: T1, Thymidylate synthase; assay: Competitive inhibition of Lactobacillus casei thymidylate synthetase using dTMP as substrate assessed as release of water after 15 mins by double reciprocal plot analysis; parameters: species or system Lacticaseibacillus casei

| Ki [1] | Ki [2] | Compound |
| --- | --- | --- |
| 150 µM | – | CC1CN([C@H]2C[C@H](O)[C@@H](COP(=O)(O)O)O2)C(=O)NC1=O (stereo partly drawn) |
| 100 µM | 2.8 µM | O=C1CCN([C@H]2C[C@H](O)[C@@H](COP(=O)(O)O)O2)C(=O)N1 |
